Values joined by “and” are separate entries in the source; they are usually repeats but may differ in a detail not shown here. Identical values can stand only once. “Also recorded” adds a separate entry of the source. Positions of bridges follow the written chain, without caps; N, C: chain ends. Residues, ends and D or L forms follow the SMILES beside them.
Columns and labels:
p75^NTR receptor = test: Neurite outgrowth over N-cadherin expressing 3T3 cells after treatment with antibody to p75NTR; type: cell-based, rat; conditions: Y27632 10 μM, BAG 6 μM, BDNF 5 ng/ml added after antibody treatment
Method: These antibody treated neurons were cultured after treatment in either: (1) control media without supplements; (2) the Rho kinase inhibitor Y27632 (10 μM final concentration); (3) BAG polypeptide (6 μM final concentration); or (4) BDNF neurotrophin (5 ng/ml final concentration). […] Each column in the figure indicates pooled results from the number of independent experiments indicated above it, and the bars on each column indicate the SEM.
Reagents and culture treatment. Unless otherwise noted here, reagents in the experiments set forth in this Section were obtained and as set forth supra, in Section 7.1.3 et seq. In particular, recombinant human FGF2 and BDNF were obtained from R&D systems (Minneapolis, Minn.) and used at final concentrations of 5 ng/ml. The Trk receptor […] K252a was obtained from Calbiochem (San Diego, Calif.) and used at a final concentration of 100 nM. The Trk agonist peptide BAG (SEQ ID NO:18) was obtained from a commercial supplier (Multiple Peptide Systems, San Diego Calif.). Recombinant MAG-Fc chimera was obtained from R&D Systems (Minneapolis, Minn.) and used at a final concentration of 5–25 μg/ml. Monoclonal antibody to GT1b (clone GMR5) was obtained from Seikagaku America (Falmouth, Mass.) and used at a final concentration of 20 μg/ml. […]

GT1b = test: Neurite outgrowth over N-cadherin expressing 3T3 cells with monoclonal antibody for GT1b; type: cell-based, rat; conditions: antibody 20 μg/ml; Y27632 10 μM, BAG 6 μM
Method: Cultures were maintained for 22 hours before fixing and staining for GAP-43. […] Each column in the figure indicates pooled results from between 7 and 10 independent experiments, and the bars on each column indicate the SEM.
Reagents and culture treatment. […] In particular, recombinant human FGF2 and BDNF were obtained from R&D systems (Minneapolis, Minn.) and used at final concentrations of 5 ng/ml. The Trk receptor agonist K252a was obtained from Calbiochem (San Diego, Calif.) and used at a final concentration of 100 nM. The Trk agonist peptide BAG (SEQ ID NO:18) was obtained from a commercial supplier (Multiple Peptide Systems, San Diego Calif.). […] A p75 NTR rabbit polyclonal antibody was raised against the extracellular domain of that receptor as previously described (see, Huber & Chao, Dev. Biol. 1995, 167:227–238) and used at a 1:200 dilution of serum. The known PKA inhibitors KT5720 and H-89 were obtained from Calbiochem (San Diego, Calif.) and used at final concentrations of 200 and 400 nM, respectively.

MAG inhibitory activity [1] = test: Neurite outgrowth over N-cadherin expressing 3T3 (LK8) cells with soluble MAG-Fc; type: cell-based, rat; conditions: for effect on MAG-Fc inhibition of neurite outgrowth: MAG-Fc up to 25 μg/ml, Y27632 10 μM, BAG 6 μM, BDNF 5 ng/ml
Method: Reagents and culture treatment. […] In particular, recombinant human FGF2 and BDNF were obtained from R&D systems (Minneapolis, Minn.) and used at final concentrations of 5 ng/ml. The Trk receptor agonist K252a was obtained from Calbiochem (San Diego, Calif.) and used at a final concentration of 100 nM. The Trk agonist peptide BAG (SEQ ID NO:18) was obtained from a commercial supplier (Multiple Peptide Systems, San Diego Calif.). […] Monoclonal antibody to GT1b (clone GMR5) was obtained from Seikagaku America (Falmouth, Mass.) and used at a final concentration of 20 μg/ml. A p75 NTR rabbit polyclonal antibody was raised against the extracellular domain of that receptor as previously described (see, Huber & Chao, Dev. Biol. 1995, 167:227–238) and used at a 1:200 dilution of serum. The known PKA inhibitors KT5720 and H-89 were obtained from Calbiochem (San Diego, Calif.) and used at final concentrations of 200 and 400 nM, respectively. The known PI3K inhibitors Wortmnannin and LY294002 were also obtained from Calbiochem (San Diego, Calif.) and were both used at final concentrations of 10 μM. The Rho kinase inhibitor Y27632 was obtained from Tocris (Bristol, UK) and used at 10 μM final concentration.
All reagents were diluted into the co-culture media and in general added to the cultures just prior to plating of the neurons. The exception was antiserum raised against the p75^NTR receptor. Instead, a high density neuronal suspension was treated with a 1:200 dilution of the serum for 60 minutes. The neurons were then diluted by a factor of about 20, and seeded out for culture.

TrkB receptor [2] = molecular target: T1, TrkB receptor (Rattus norvegicus, UniProt Q63604); test: Neurite outgrowth assay, inhibition of the NT-4 response; type: cell-based
T1 construct: endogenous in cells; host or cells: primary rat cerebellar neurons co-cultured on 3T3 fibroblast monolayers
Method: (§1) After 16 hours, the co-cultures were fixed and mean neurite length determined as has been previously described (Williams et al., J. Biol. Chem. 2000, 275:4007–4012).
(§2) The effect of this peptide on the BDNF and NT-4 response was tested in the above-described neurite outgrowth assay, with both NT ligands used at concentrations of 5 ng/ml.

TrkB receptor [3] = molecular target: T1, TrkB receptor; test: Neurite outgrowth assay, inhibition of the BDNF response; type: cell-based
Method: as §1, §2

Trk receptor = Trk receptor (Rattus norvegicus, UniProt Q63604); conditions: maximally active BAG (6 μM); peptides 125 μM, K252a 100 nM
cerebellar neurons [4] = test: Neurite outgrowth assay, cerebellar neurons over 3T3 monolayers (stimulation / basal outgrowth); type: cell-based, rat; conditions: for effect on basal neurite outgrowth: absence of any natural NT ligand, N-Ac-CRGEC-NH2 at concentrations greater than about 400 μM
Method: as §1

cerebellar neurons [5] = type: cell-based, rat; conditions: K252a 100 nM, KT5720 200 nM, H-89 400 nM, Wortmannin and LY294002 10 μM; for effect on the neurite outgrowth response to BAG: BAG 6 μM; for effect on the neurite outgrowth response to BDNF: BDNF 5 ng/ml; for effect on the neurite outgrowth response to FGF2: FGF2 5 ng/ml
Method: To test the effects of various agents, the experiments were done as indicated in the figure using control media containing no additional supplements, or using media additionally supplement with K252a (100 nM final concentration), a PKA inhibitor (KT5720 at 200 nM final concentration or H-89 at 400 nM final concentration), or a PI3K inhibitor (Wortmannin or Ly294002, each at a final concentration of 10 μM). […] Each column in the figure indicates pooled results from at least three independent experiments, and the bars on each column indicate the SEM.
Reagents and culture treatment. Unless otherwise noted here, reagents in the experiments set forth in this Section were obtained and as set forth supra, in Section 7.1.3 et seq. In particular, recombinant human FGF2 and BDNF were obtained from R&D systems (Minneapolis, Minn.) and used at final concentrations of 5 ng/ml. The Trk receptor […] K252a was obtained from Calbiochem (San Diego, Calif.) and used at a final concentration of 100 nM. The Trk agonist peptide BAG (SEQ ID NO:18) was obtained from a commercial supplier (Multiple Peptide Systems, San Diego Calif.). […] A p75 NTR rabbit polyclonal antibody was raised against the extracellular domain of that receptor as previously described (see, Huber & Chao, Dev. Biol. 1995, 167:227–238) and used at a 1:200 dilution of serum. The known PKA inhibitors KT5720 and H-89 were obtained from Calbiochem (San Diego, Calif.) and used at final concentrations of 200 and 400 nM, respectively.

MAG inhibitory activity [6] = test: Substrate based neurite outgrowth assay in inhibitory environment (MAG-Fc coated wells); type: cell-based, rat; conditions: for neurite growth in the inhibitory environment (overall / dose response) / neurite growth in the inhibitory environment at 33 μg/ml: 27 hours; for neurite growth in the inhibitory environment at 33 μg/ml: peptide 33 μg/ml
Method: First, slides are coated with polylysine at 17 μg/ml in distilled water (“dH2O) for thirty (30) minutes at room temperature. After aspirating the wells, a mixture of anti-human IgG and/or fibronectin (both at 10 μg/ml in DMEM) is added to wells to be coated with those compounds, and incubated for 120 minutes. […] PND2/3 rat cerebellar neurons are then added at 15K to each well in DMEM, 10% FCS, 25 mM KCl and 5 ng/ml FGF2, bringing the final media volume to 300 μl in each well. The cerebellar neurons are cultured for 27 hours before fixing and staining for GAP-43.

MAG inhibitory activity [7] = test: Neurite outgrowth over 3T3 cells that do not express N-cadherin with soluble MAG-Fc; type: cell-based, rat; conditions: 3T3 without N-cadherin, BAG 6 μM
cerebellar neurons [8] = conditions: FGF2 5 ng/ml, WIN55,2122-2 0.2 μM; linear peptide up to 125 μM
Method: The peptides were also tested for their ability to inhibit the neurite outgrowth response stimulated by other agents, including N-cadherin, FGF2 or a CB1 receptor agonist.

T1 sequence (Q63604 32-821): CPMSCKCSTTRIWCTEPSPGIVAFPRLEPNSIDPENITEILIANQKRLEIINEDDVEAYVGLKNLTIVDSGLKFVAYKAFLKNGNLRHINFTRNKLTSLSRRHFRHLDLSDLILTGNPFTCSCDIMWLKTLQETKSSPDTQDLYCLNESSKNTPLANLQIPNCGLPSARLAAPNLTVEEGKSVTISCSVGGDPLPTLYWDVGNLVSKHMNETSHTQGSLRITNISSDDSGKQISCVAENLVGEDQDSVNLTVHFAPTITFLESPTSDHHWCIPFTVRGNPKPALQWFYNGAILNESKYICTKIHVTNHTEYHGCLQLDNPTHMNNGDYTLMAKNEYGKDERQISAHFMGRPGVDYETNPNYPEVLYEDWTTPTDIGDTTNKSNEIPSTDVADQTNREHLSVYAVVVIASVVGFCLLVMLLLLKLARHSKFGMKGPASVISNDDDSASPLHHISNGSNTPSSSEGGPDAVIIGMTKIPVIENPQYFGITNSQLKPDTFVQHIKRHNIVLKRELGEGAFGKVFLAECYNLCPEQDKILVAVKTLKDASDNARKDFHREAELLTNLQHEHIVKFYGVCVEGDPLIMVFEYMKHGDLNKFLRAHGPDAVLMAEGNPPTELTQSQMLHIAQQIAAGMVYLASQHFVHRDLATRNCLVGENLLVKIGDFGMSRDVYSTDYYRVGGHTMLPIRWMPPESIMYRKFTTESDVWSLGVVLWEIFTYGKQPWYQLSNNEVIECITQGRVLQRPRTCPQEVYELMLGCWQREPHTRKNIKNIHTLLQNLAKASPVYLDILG
Sequence of Trk receptor (Q63604 32-821): as above

For `C[C@@H](N)[C@H]1CC[C@H](C(=O)Nc2ccncc2)CC1` [Y27632, reference compound], the “effect on inhibitory response elicited by p75NTR antibody” value (p75^NTR receptor) was “does not elicit an inhibitory response”, the “effect on inhibition of neurite outgrowth by GT1b antibody” value (GT1b) was “effectively abolishes this effect” and the “effect on MAG-Fc inhibition of neurite outgrowth” value (from here on “effect on MAG-Fc inhibition”) (MAG inhibitory activity [1]) was “MAG-Fc does not inhibit neurite outgrowth”.
For `CC(=O)N[C@H]1CSSC[C@@H](C(N)=O)NC(=O)[C@H](CCC(=O)O)NC(=O)CNC(=O)[C@H](CCCNC(=N)N)NC(=O)[C@H](CCCNC(=N)N)NC(=O)[C@H](CO)NC1=O` [N-Ac-CSRRGEC-NH2] (Ac-CSRRGEC-NH2; disulfide 1-7), the IC50 (TrkB receptor [2]) was roughly 55 µM, the “TrkB antagonist potency compared with NT-3 and NGF equivalent peptides” value (TrkB receptor [3]) was “more potent TrkB antagonist” and the IC50 (TrkB receptor [3]; 50% inhibition of the BDNF response, BDNF 5 ng/ml) was 27 µM and ~25 µM. For the same compound, the “fold better than the NGF and NT-3 derived peptides at inhibiting the BDNF response” value (TrkB receptor [3]; BDNF 5 ng/ml) was “approximately 5 fold”, the “inhibition of the neurite outgrowth response to the BAG peptide” value (from here on “inhibition … to the BAG peptide”) (Trk receptor) was “can fully inhibit the activity” and the “effect on basal neurite outgrowth” value (cerebellar neurons [4]) was “neither the N-Ac-CSRRGEC-NH2 (SEQ ID NO:2) peptide nor its NGF or NT-3 equivalents had any effect on basal neurite outgrowth”.
In the case of `O=S(=O)(NCCNC/C=C/c1ccc(Br)cc1)c1cccc2cnccc12` [H-89], the “effect on the neurite outgrowth response to BAG” value (shortened to “effect … to BAG”) (cerebellar neurons [5]) is reported as “essentially abolished”, the “effect on the neurite outgrowth response to BDNF” value (“effect … to BDNF” for short) (cerebellar neurons [5]) is reported as “essentially abolished” and the “effect on the neurite outgrowth response to FGF2” value (“effect … to FGF2” for short) (cerebellar neurons [5]) is reported as “unaffected”.
For N-Ac-CRGEC-NH2, the “effect on basal neurite outgrowth” value (cerebellar neurons [4]) was “no effect on basal neurite outgrowth”.
For `CCCCCCOC(=O)[C@]1(O)C[C@@H]2O[C@@]1(C)n1c3ccccc3c3c4c(c5c6ccccc6n2c5c31)C(=O)NC4` [KT5720], the “effect … to BAG” value (cerebellar neurons [5]) was “essentially abolished”, the “effect … to BDNF” value (cerebellar neurons [5]) was “essentially abolished” and the “effect … to FGF2” value (cerebellar neurons [5]) was “unaffected”.
With `CCN(CC)CCCCNc1ncc2cc(-c3cc(OC)cc(OC)c3)c(NC(=O)NC(C)(C)C)nc2n1` [PD17304, reference compound] the “inhibition … to the BAG peptide” value (Trk receptor) was “did not inhibit the response”.
In the case of c(dLdEGdRdRdSdLdEGdRdRdS) [hriBAG2], the “neurite growth in the inhibitory environment (overall / dose response)” value (MAG inhibitory activity [6]; MAG-Fc coating) is reported as “block MAG inhibitory activity and promote neurite outgrowth; also recorded: promoted substantial dose-dependent neurite growth”, the “dose at which a neurite growth response can be observed” value (MAG inhibitory activity [6]; inhibitory environment (MAG-Fc coating)) is reported as “about 10 μg/ml” and the “neurite growth in the inhibitory environment at 33 μg/ml” value (MAG inhibitory activity [6]; MAG-Fc coating) is reported as “almost double the value seen in the inhibitory environment without the peptidomimetic; also recorded: promoted neurite growth to a substantially greater extent than BDNF, BAG peptide, and the hBAG2 and riBAG1 at any concentration”.
For `COC(=O)[C@@]1(O)C[C@H]2O[C@]1(C)n1c3ccccc3c3c4c(c5c6ccccc6n2c5c31)C(=O)NC4` [K252a], the “effect … to BAG” value (cerebellar neurons [5]) was “essentially abolished”, the “effect … to BDNF” value (cerebellar neurons [5]) was “essentially abolished” and the “effect … to FGF2” value (cerebellar neurons [5]) was “unaffected”. The “inhibition … to the BAG peptide” value (Trk receptor) was “fully inhibited the response”.
With “Ac-CSRRGELAASRRGELC-NH2 (cysteine pairing not given here) [BAG]” the “effect on inhibitory response elicited by p75NTR antibody” value (p75^NTR receptor) was “effectively blocks the p75^NTR antibody's inhibitory effect”, the “effect on inhibition of neurite outgrowth by GT1b antibody” value (GT1b) was “the antibody's inhibitor effect is effectively eliminated” and the “neurite growth in the inhibitory environment at 10 μg/ml and 100 μg/ml” value (MAG inhibitory activity [6]; concentrations of 10 μg/ml and 100 μg/ml, MAG-Fc coating) was “promotes neurite growth”. The “effect on neurite outgrowth in the absence of MAG-Fc” value (MAG inhibitory activity [7]) was “does not have a substantial effect”, the “effect on MAG-Fc inhibition” value (MAG inhibitory activity [7]; MAG-Fc 25 μg/ml, BDNF 5 ng/ml) was “does effectively block the MAG response” and the “lowest concentration that effectively blocks MAG inhibitor activity” value (MAG inhibitory activity [1]; MAG-Fc 25 μg/ml) was 30 nM. The “effect on MAG-Fc inhibition” value (MAG inhibitory activity [1]) was “MAG-Fc failed to inhibit neurite outgrowth”, the EC50 (cerebellar neurons [4]) was roughly 0.3 µM and the “concentration of near maximal neurite outgrowth response” value (cerebellar neurons [4]) was “about 600 Nm”. The “promotion of axonal growth compared with established growth promoting agents” value (cerebellar neurons [4]; BAG 6 μM, comparators 5 ng/ml) was “promotes axonal growth by the same extent as maximally active concentrations of NT-R, BDNF and FGF2”.
For cyclo(SRRGELSRRGEL) [hBAG2], the “neurite growth in the inhibitory environment (overall / dose response)” value (MAG inhibitory activity [6]; MAG-Fc coating) was “block MAG inhibitory activity and promote neurite outgrowth” and the “neurite growth in the inhibitory environment at 33 μg/ml” value (MAG inhibitory activity [6]; MAG-Fc coating) was “promotes neurite growth; also recorded: promoted neurite growth to an extent comparable to BAG polypeptide at a concentration of 10 μg/ml”.
In the case of “Ac-dCdLdEGdRdRdSdAdAdLdEGdRdRdSdC-NHs [riBAG1]”, the “neurite growth in the inhibitory environment (overall / dose response)” value (MAG inhibitory activity [6]; MAG-Fc coating) is reported as “block MAG inhibitory activity and promote neurite outgrowth” and the “neurite growth in the inhibitory environment at 33 μg/ml” value (MAG inhibitory activity [6]; MAG-Fc coating) is reported as “does not promote growth”.
For Ac-SRRGELA-NH2, the “inhibition of neurite outgrowth response stimulated by N-cadherin, FGF2 or a CB1 receptor agonist” value (cerebellar neurons [8]) was “did not inhibit any of the response”, the “inhibition of the NT-4 response” value (TrkB receptor [2]; NT-4 5 ng/ml, linear peptide up to 125 μM) was “did not inhibit any of the response” and the “inhibition of the BDNF response” value (TrkB receptor [3]; BDNF 5 ng/ml, linear peptide up to 125 μM) was “did not inhibit any of the response”. For the same compound, the “inhibition … to the BAG peptide” value (Trk receptor) was “very little to no effect”.

Reference: US7196061B2, “Compounds that modulate neuronal growth and their uses” (priority 2003, dated 2007)
